19 compounds from patent US11427615B2, “Peptide compound and application thereof, and composition containing peptide compound” (XDCEXPLORER (SHANGHAI) CO., LTD., priority 2017, dated 2022) can be followed below.

In the assay the target is T1, human kiss1 receptor (GPR54) (Homo sapiens, UniProt Q969F8).
T1 construct: host or cells: NFAT-bla CHO-K1 cells (Chinese hamster ovary), purchased recombinant cell line
Description: Kiss1 receptor (GPR54) binding activity of agonists, FRET detection in NFAT-bla CHO-K1 cells. Type of assay: cell-based.

[1] abbreviates: GPR54, measured according to the method of effect Embodiment 1, preliminary data, read-out: Preliminary measurement data (GPR54) EC50.

Like-named read-outs stand apart in the source and are kept apart here. Non-standard residues stand in square brackets, D forms with d. Residues, ends and D or L forms follow the SMILES beside them. *: point of attachment. Phe(4-tBu) = CC(C)(C)c1ccc(C[C@H](N)C(=O)O)cc1; dPhe(2,4-Cl2) = N[C@H](Cc1ccc(Cl)cc1Cl)C(=O)O; Dnp = O=[N+]([O-])c1ccc(*)c([N+](=O)[O-])c1; Phe(4-Cl) = N[C@@H](Cc1ccc(Cl)cc1)C(=O)O; Phe(4-F) = N[C@@H](Cc1ccc(F)cc1)C(=O)O; Phe(4-Me) = Cc1ccc(C[C@H](N)C(=O)O)cc1; Pro(4,4-F2) = O=C(O)[C@@H]1CC(F)(F)CN1; Pro(4R-NH2) = N[C@H]1CN[C@H](C(=O)O)C1; dAla(2-furyl) = N[C@H](Cc1ccco1)C(=O)O; 2Nal = N[C@@H](Cc1ccc2ccccc2c1)C(=O)O; Arg(Me) = CNC(=N)NCCC[C@H](N)C(=O)O; Hyp = O=C(O)[C@@H]1C[C@@H](O)CN1; 2Pal = N[C@@H](Cc1ccccn1)C(=O)O; 3Pal = N[C@@H](Cc1cccnc1)C(=O)O; NMeL = CN[C@@H](CC(C)C)C(=O)O; Pip = O=C(O)[C@@H]1CCCCN1; Dap = NC[C@H](N)C(=O)O; azaGly = NNC(=O)O; βAla = NCCC(=O)O

T1 sequence (Q969F8 whole entry): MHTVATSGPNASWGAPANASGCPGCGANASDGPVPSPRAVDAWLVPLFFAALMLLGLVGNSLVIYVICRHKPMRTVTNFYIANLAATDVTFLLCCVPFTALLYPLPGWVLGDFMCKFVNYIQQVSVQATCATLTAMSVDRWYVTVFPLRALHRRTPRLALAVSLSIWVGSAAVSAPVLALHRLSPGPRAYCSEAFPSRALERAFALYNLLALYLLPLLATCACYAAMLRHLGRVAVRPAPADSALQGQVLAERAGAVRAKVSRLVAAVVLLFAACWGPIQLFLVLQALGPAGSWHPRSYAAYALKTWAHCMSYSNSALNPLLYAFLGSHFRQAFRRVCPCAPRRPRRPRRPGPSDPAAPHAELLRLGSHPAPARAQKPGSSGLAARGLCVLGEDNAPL

`CNC(=N)NCCC[C@H](NC(=O)C(CC(C)C)C(=S)NCNC(=O)[C@H](Cc1ccccc1)NC(=O)[C@@H](NC(=O)[C@H](CC(N)=O)NC(=O)[C@@H]1C[C@@H](O)CN1C(=O)[C@@H](Cc1ccc(O)cc1)NC(C)=O)[C@@H](C)O)C(=O)N[C@@H](Cc1c[nH]c2ccccc12)C(N)=O` (single isomer, unassigned) [YA-254, Ac-(D-Tyr)-Hyp-Asn-Thr-Phe-ψ(NHCS)Gly-Leu-Arg(Me)-Trp-NH2]: the EC50 under setting [1] is 0.03 nM.

Turning to `CNC(=N)NCCC[C@H](NC(=O)C(CC(C)C)C(=S)NCNC(=O)[C@H](Cc1ccccc1)NC(=O)[C@@H](NC(=O)[C@H](CC(N)=O)NC(=O)[C@@H]1CC(F)(F)CN1C(=O)[C@@H](Cc1ccc(Cl)cc1Cl)NC(C)=O)[C@@H](C)O)C(=O)N[C@@H](Cc1c[nH]c2ccccc12)C(N)=O` (single isomer, unassigned) [YA-255, Ac-[D-Phe(2,4-DiCl)]-DiFluorPro-Asn-Thr-Phe-ψ(NHCS) Gly-Leu-Arg(Me)-Trp-NH2], the EC50 under setting [1] stood at 0.028 nM.

In the case of `CNC(=N)NCCC[C@H](NC(=O)C(CC(C)C)C(=O)NCNC(=O)[C@H](Cc1ccccc1)NC(=O)[C@@H](NC(=O)[C@H](CC(N)=O)NC(=O)[C@@H]1C[C@@H](O)CN1C(=O)[C@@H](Cc1ccc(O)cc1)NC(C)=O)[C@@H](C)O)C(=O)N[C@@H](Cc1c[nH]c2ccccc12)C(N)=O` (single isomer, unassigned) [YA-303, Ac-(D-Tyr)-Hyp-Asn-Thr-Phe-ψ(NHCO)Gly-Leu-Arg(Me)-Trp-NH2], under setting [1], the EC50 was found to be 0.01 nM.

Turning to `CC(=O)N[C@@H](Cc1ccc(O)cc1)C(=O)N[C@@H](CC(N)=O)C(=O)N[C@@H](Cc1c[nH]c2ccccc12)C(=O)N[C@@H](CC(N)=O)C(=O)N[C@@H](CO)C(=O)N[C@@H](Cc1ccccc1)C(=O)NCC(=O)N[C@@H](CC(C)C)C(=O)N[C@@H](CCCNC(=N)N)C(=O)N[C@@H](Cc1ccccc1)C(N)=O` [YA-2, Ac-Tyr-Asn-Trp-Asn-Ser-Phe-Gly-Leu-Arg-Phe-NH2], the EC50 by setting is: under setting [1], 10 nM; (NFAT-bla CHO-K1 cells that express human kiss1 receptor (GPR54), FRET, cells cultured with compound for 4 hours, read-out: GPR54 EC50/nM) 2.11 nM.

The compound `CNC(=N)NCCC[C@H](NC(=O)[C@H](CC(C)C)NC(=O)NNC(=O)[C@H](Cc1ccccc1)NC(=O)[C@@H](NC(=O)[C@H](CC(N)=O)NC(=O)[C@@H]1C[C@@H](O)CN1C(=O)[C@H](CNc1ccc([N+](=O)[O-])cc1[N+](=O)[O-])NC(C)=O)[C@@H](C)O)C(=O)N[C@@H](Cc1c[nH]c2ccccc12)C(N)=O` [YA-41, Ac-Dap(Dnp)-Hyp-Asn-Thr-Phe-azaGly-Leu-Arg(Me)-Trp-NH2] (Ac-[Dap](Dnp)[Hyp]NTF[azaGly]L[Arg(Me)]W-NH2) had an EC50 (Preliminary measurement data (GPR54) EC50, nM), GPR54, measured according to the method of effect Embodiment 1, preliminary data) of 0.095 nM.

As for `CNC(=N)NCCC[C@H](NC(=O)[C@H](CC(C)C)NC(=O)NNC(=O)[C@H](Cc1ccccc1)NC(=O)[C@@H](NC(=O)[C@H](CC(N)=O)NC(=O)[C@@H]1C[C@@H](O)CN1C(=O)[C@@H](Cc1ccc(Cl)cc1Cl)NC(C)=O)[C@@H](C)O)C(=O)N[C@@H](Cc1c[nH]c2ccccc12)C(N)=O` [YA-42, Ac-[D-Phe(2,4-DiCl)]-Hyp-Asn-Thr-Phe-azaGly-Leu-Arg(Me)-Trp-NH2] (Ac-[dPhe(2,4-Cl2)][Hyp]NTF[azaGly]L[Arg(Me)]W-NH2), under setting [1], the EC50 stood at 0.015 nM.

In the case of `CNC(=N)NCCC[C@H](NC(=O)[C@H](CC(C)C)NC(=O)NNC(=O)[C@H](Cc1ccccc1)NC(=O)[C@@H](NC(=O)[C@H](CC(N)=O)NC(=O)[C@@H]1C[C@@H](O)CN1C(=O)[C@@H](Cc1ccco1)NC(C)=O)[C@@H](C)O)C(=O)N[C@@H](Cc1c[nH]c2ccccc12)C(N)=O` [YA-43, Ac-(D-2Fua)-Hyp-Asn-Thr-Phe-azaGly-Leu-Arg(Me)-Trp-NH2] (Ac-[dAla(2-furyl)][Hyp]NTF[azaGly]L[Arg(Me)]W-NH2), under setting [1], the EC50 came out at 0.095 nM.

For `CNC(=N)NCCC[C@H](NC(=O)[C@H](CC(C)C)NC(=O)NNC(=O)[C@H](Cc1ccccc1)NC(=O)[C@@H](NC(=O)[C@H](CC(N)=O)NC(=O)[C@@H]1C[C@@H](O)CN1C(=O)[C@H](Cc1ccccn1)NC(C)=O)[C@@H](C)O)C(=O)N[C@@H](Cc1c[nH]c2ccccc12)C(N)=O` [YA-68, Ac-2Pal-Hyp-Asn-Thr-Phe-azaGly-Leu-Arg(Me)-Trp-NH2] (Ac-[2Pal][Hyp]NTF[azaGly]L[Arg(Me)]W-NH2), the EC50 under setting [1] is 0.18 nM.

As for `CNC(=N)NCCC[C@H](NC(=O)[C@H](CC(C)C)NC(=O)NNC(=O)[C@H](Cc1ccccc1)NC(=O)[C@@H](NC(=O)[C@H](CC(N)=O)NC(=O)[C@@H]1C[C@@H](O)CN1C(=O)[C@H](Cc1cccnc1)NC(C)=O)[C@@H](C)O)C(=O)N[C@@H](Cc1c[nH]c2ccccc12)C(N)=O` [YA-69, Ac-3Pal-Hyp-Asn-Thr-Phe-azaGly-Leu-Arg(Me)-Trp-NH2] (Ac-[3Pal][Hyp]NTF[azaGly]L[Arg(Me)]W-NH2), the EC50 under setting [1] worked out at 0.3 nM.

For `CNC(=N)NCCC[C@H](NC(=O)[C@H](CC(C)C)NC(=O)NNC(=O)[C@H](Cc1ccccc1)NC(=O)[C@@H](NC(=O)[C@H](CC(N)=O)NC(=O)[C@@H]1C[C@@H](O)CN1C(=O)[C@H](Cc1ccc(F)cc1)NC(C)=O)[C@@H](C)O)C(=O)N[C@@H](Cc1c[nH]c2ccccc12)C(N)=O` [YA-71, Ac-Phe(4-F)-Hyp-Asn-Thr-Phe-azaGly-Leu-Arg(Me)-Trp-NH2] (Ac-[Phe(4-F)][Hyp]NTF[azaGly]L[Arg(Me)]W-NH2), under setting [1], the EC50 came to 0.058 nM.

For the compound `CNC(=N)NCCC[C@H](NC(=O)[C@H](CC(C)C)NC(=O)NNC(=O)[C@H](Cc1ccccc1)NC(=O)[C@@H](NC(=O)[C@H](CC(N)=O)NC(=O)[C@@H]1C[C@@H](O)CN1C(=O)[C@H](Cc1ccc(Cl)cc1)NC(C)=O)[C@@H](C)O)C(=O)N[C@@H](Cc1c[nH]c2ccccc12)C(N)=O` [YA-72, Ac-Phe(4-Cl)-Hyp-Asn-Thr-Phe-azaGly-Leu-Arg(Me)-Trp-NH2] (Ac-[Phe(4-Cl)][Hyp]NTF[azaGly]L[Arg(Me)]W-NH2), the EC50 under setting [1] came to 5.55 nM.

On to `CNC(=N)NCCC[C@H](NC(=O)[C@H](CC(C)C)NC(=O)NNC(=O)[C@H](Cc1ccccc1)NC(=O)[C@@H](NC(=O)[C@H](CC(N)=O)NC(=O)[C@@H]1C[C@@H](O)CN1C(=O)[C@H](Cc1ccc(OC)cc1)NC(C)=O)[C@@H](C)O)C(=O)N[C@@H](Cc1c[nH]c2ccccc12)C(N)=O` [YA-73, Ac-Tyr(Me)-Hyp-Asn-Thr-Phe-azaGly-Leu-Arg(Me)-Trp-NH2] (Ac-Y(Me)[Hyp]NTF[azaGly]L[Arg(Me)]W-NH2), for which the EC50 under setting [1] was 1.32 nM.

Consider `CNC(=N)NCCC[C@H](NC(=O)[C@H](CC(C)C)NC(=O)NNC(=O)[C@H](Cc1ccccc1)NC(=O)[C@@H](NC(=O)[C@H](CC(N)=O)NC(=O)[C@@H]1C[C@@H](O)CN1C(=O)[C@H](Cc1ccc(C)cc1)NC(C)=O)[C@@H](C)O)C(=O)N[C@@H](Cc1c[nH]c2ccccc12)C(N)=O` [YA-74, Ac-Phe(4-Me)-Hyp-Asn-Thr-Phe-azaGly-Leu-Arg(Me)-Trp-NH2] (Ac-[Phe(4-Me)][Hyp]NTF[azaGly]L[Arg(Me)]W-NH2), for which, under setting [1], the EC50 was 0.921 nM.

Regarding `CNC(=N)NCCC[C@H](NC(=O)[C@H](CC(C)C)NC(=O)NNC(=O)[C@H](Cc1ccccc1)NC(=O)[C@@H](NC(=O)[C@H](CC(N)=O)NC(=O)[C@@H]1C[C@@H](O)CN1C(=O)[C@H](Cc1ccc(C(C)(C)C)cc1)NC(C)=O)[C@@H](C)O)C(=O)N[C@@H](Cc1c[nH]c2ccccc12)C(N)=O` [YA-75, Ac-Phe(4-tBu)-Hyp-Asn-Thr-Phe-azaGly-Leu-Arg(Me)-Trp-NH2] (Ac-[Phe(4-tBu)][Hyp]NTF[azaGly]L[Arg(Me)]W-NH2), the EC50 under setting [1] stood at 18.7 nM.

In the case of `CNC(=N)NCCC[C@H](NC(=O)[C@H](CC(C)C)NC(=O)NNC(=O)[C@H](Cc1ccccc1)NC(=O)[C@@H](NC(=O)[C@H](CC(N)=O)NC(=O)[C@@H]1CC(F)(F)CN1C(=O)[C@@H](Cc1ccc(O)cc1)NC(C)=O)[C@@H](C)O)C(=O)N[C@@H](Cc1c[nH]c2ccccc12)C(N)=O` [YA-80, Ac-D-Tyr-Pro(diF)-Asn-Thr-Phe-azaGly-Leu-Arg(Me)-Trp-NH2] (Ac-[dY][Pro(4,4-F2)]NTF[azaGly]L[Arg(Me)]W-NH2), under setting [1], the EC50 is 0.007 nM.

As for `CNC(=N)NCCC[C@H](NC(=O)[C@H](CC(C)C)NC(=O)NNC(=O)[C@H](Cc1ccccc1)NC(=O)[C@@H](NC(=O)[C@H](CC(N)=O)NC(=O)[C@@H]1C[C@@H](O)CN1C(=O)[C@@H](Cc1ccc(O)cc1)NC(C)=O)[C@@H](C)O)C(=O)N[C@@H](Cc1ccc2ccccc2c1)C(N)=O` [YA-81, Ac-D-Tyr-Hyp-Asn-Thr-Phe-azaGly-Leu-Arg(Me)-2Nal-NH2] (Ac-[dY][Hyp]NTF[azaGly]L[Arg(Me)][2Nal]-NH2), under setting [1], the EC50 was determined as 0.011 nM.

As to `CNC(=N)NCCC[C@H](NC(=O)[C@H](CC(C)C)N(C)C(=O)CCNC(=O)[C@H](Cc1ccccc1)NC(=O)[C@@H](NC(=O)[C@H](CC(N)=O)NC(=O)[C@@H]1C[C@@H](O)CN1C(=O)[C@@H](Cc1ccc(O)cc1)NC(C)=O)[C@@H](C)O)C(=O)N[C@@H](Cc1c[nH]c2ccccc12)C(N)=O` [YA-82, Ac-(D-Tyr)-Hyp-Asn-Thr-Phe-BetaAla-(NMe-Leu)-Arg(Me)-Trp-NH2] (Ac-[dY][Hyp]NTF[βAla][NMeL][Arg(Me)]W-NH2), the EC50 under setting [1] is 2.79 nM.

As to `CNC(=N)NCCC[C@H](NC(=O)[C@H](CC(C)C)NC(=O)NNC(=O)[C@H](Cc1ccccc1)NC(=O)[C@@H](NC(=O)[C@H](CC(N)=O)NC(=O)[C@@H]1C[C@@H](N)CN1C(=O)[C@@H](Cc1ccc(O)cc1)NC(C)=O)[C@@H](C)O)C(=O)N[C@@H](Cc1c[nH]c2ccccc12)C(N)=O` [YA-83, Ac-D-Tyr-Pro(4-NH2)-Asn-Thr-Phe-azaGly-Leu-Arg(Me)-Trp-NH2] (Ac-[dY][Pro(4R-NH2)]NTF[azaGly]L[Arg(Me)]W-NH2), the EC50 under setting [1] was 0.008 nM.

With `CNC(=N)NCCC[C@H](NC(=O)[C@H](CC(C)C)NC(=O)NNC(=O)[C@H](Cc1ccccc1)NC(=O)[C@@H](NC(=O)[C@H](CC(N)=O)NC(=O)[C@@H]1CCCCN1C(=O)[C@@H](Cc1ccc(O)cc1)NC(C)=O)[C@@H](C)O)C(=O)N[C@@H](Cc1c[nH]c2ccccc12)C(N)=O` [YA-85, Ac-D-Tyr-(S-Pip)-Asn-Thr-Phe-azaGly-Leu-Arg(Me)-Trp-NH2] (Ac-[dY][Pip]NTF[azaGly]L[Arg(Me)]W-NH2), the EC50 under setting [1] was 0.026 nM.
